Among the test systems are HT-29; MCF7; TK-10; T47D; SNB-19; OVCAR-8; NCI-H460; M14; DU-145; HCT-15; MDA-MB-435; OVCAR-3; ACHN; UACC-62; KM12; CAKI-1; Hs-578T; SR; Malme-3M.
What all share (test): NCI anticancer screen, dose series, 48 h

Each structure is given as a SMILES string.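 Following 48 hours of exposure in 96-well plates, responses at five concentrations were used to interpolate endpoints linearly. GI50 marks 50% less growth.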 The source made the active and inactive calls. Cut-off read from the data, not from the text of the source: active = GI50 up to about 1.1 µM and inactive = higher.

As for `C1CNCCNCCN1`, the GI50 in the assay with HT-29, with MCF7, with TK-10, in the assay with T47D, in the assay on SNB-19 and in the assay with OVCAR-8 was > 100 µM (inactive) in each case. In addition, the GI50 was > 100 µM (inactive) in the assay on NCI-H460; > 100 µM (inactive) in the assay on M14; > 100 µM (inactive) in the assay on DU-145; more than 100 µM in the assay on HCT-15; > 100 µM (inactive) with MDA-MB-435; > 100 µM (inactive) in the assay with OVCAR-3. The GI50 with ACHN, in the assay on UACC-62, with KM12, with CAKI-1, in the assay on Hs-578T and with SR was > 100 µM (inactive) in each case.

With `Cc1c(C(=O)OCc2ccccc2)[n+]([O-])c2ccccc2[n+]1[O-]`, the GI50 in the assay with HT-29 is 60.8 µM (inactive); in the assay with MCF7, 19.5 µM (inactive); in the assay with TK-10, 33.2 µM (inactive); with T47D it was 13.4 µM (inactive); in the assay on SNB-19, 57.3 µM (inactive); with OVCAR-8, 48.6 µM (inactive). In addition, the GI50 in the assay on NCI-H460 is 25.4 µM (inactive); with M14 it was 32.1 µM (inactive); with DU-145, 19.9 µM (inactive); in the assay on HCT-15, 40.9 µM; in the assay with MDA-MB-435, 26.4 µM (inactive); in the assay on OVCAR-3, 30.3 µM (inactive). For the same compound, the GI50 in the assay on ACHN is 74.3 µM (inactive); with UACC-62, 25.6 µM (inactive); with KM12, 28.1 µM (inactive); with CAKI-1, 24.5 µM (inactive); with Hs-578T, 30.1 µM (inactive); in the assay with SR, 19.5 µM (inactive).

`O=C(CCc1ccc(O)c(O)c1)NCCc1ccc(O)c(O)c1`: the GI50 is > 100 µM (inactive) in the assay on HT-29; 27.8 µM (inactive) with MCF7; > 100 µM (inactive) in the assay with TK-10; > 100 µM (inactive) with T47D; > 100 µM (inactive) in the assay with SNB-19; 18.3 µM (inactive) with OVCAR-8. The GI50 in the assay on NCI-H460 was > 100 µM (inactive); in the assay on M14 it was > 100 µM (inactive); with DU-145, > 100 µM (inactive); with HCT-15 it was more than 100 µM; in the assay on Malme-3M, > 100 µM (inactive); in the assay on MDA-MB-435, 17.9 µM (inactive). Also, the GI50 with OVCAR-3 is 94.2 µM (inactive); with ACHN it was > 100 µM (inactive); with UACC-62, > 100 µM (inactive); in the assay on KM12, > 100 µM (inactive); with Hs-578T, > 100 µM (inactive); with SR, 23.9 µM (inactive).

`NC1CC(=O)c2sccc21` (stereo unspecified): the GI50 in the assay on HT-29, in the assay on MCF7, with TK-10, in the assay with T47D, in the assay on SNB-19 and with OVCAR-8 was > 100 µM (inactive) throughout. The GI50 in the assay on M14 was > 100 µM (inactive); with DU-145, > 100 µM (inactive); in the assay on HCT-15, more than 100 µM; with MDA-MB-435, > 100 µM (inactive); with OVCAR-3 it was > 100 µM (inactive); in the assay on ACHN, > 100 µM (inactive). For the same compound, the GI50 in the assay on UACC-62, in the assay on KM12, with CAKI-1, in the assay with Hs-578T and in the assay on SR was > 100 µM (inactive) throughout.

The values above are taken from ChEMBL document CHEMBL1201862, “PubChem BioAssay data set” (2004).
